Measured values: patent publication US20240180822A1, “NON-NANOPARTICULATE APPLICATION FORMS OF MACROLIDES” (Nucleus Medical GmbH, priority 2021, published 2024)

Experiment: saturation solubility of tacrolimus in different solvents (HPLC in the supernatant)
Format: physicochemical
Conditions: all tested organic solvents
Description: Tacrolimus was dissolved in an organic solvent. Particularly, the saturation solubility of tacrolimus in different organic solvents was tested. Crystalline active ingredient was added to a defined amount of solvent at room temperature while stirring until an insoluble sediment was formed. After filtration, the concentration of active ingredient was quantified by HPLC in the supernatant.

## C=CC[C@@H]1/C=C(\C)C[C@H](C)C[C@H](OC)[C@H]2O[C@@](O)(C(=O)C(=O)N3CCCC[C@H]3C(=O)O[C@H](/C(C)=C/[C@@H]3CC[C@@H](O)[C@H](OC)C3)[C@H](C)[C@@H](O)CC1=O)[C@H](C)C[C@@H]2OC [Tacrolimus]
  solubility in organic solvents: soluble in all tested organic solvents
